In patent US20240327433A1, “PYRIMIDOPYRAN COMPOUND” (Medshine Discovery Inc., priority 2021, published 2024):
Where a name gives a salt, the structure may show the parent alone.

Tests used:
[1] = tested on: p-ERK in GP2D cells; experiment: Assay of p-ERK inhibition in GP2D cells (HTRF); assay type: cell-based; conditions: 1 hour incubation
Method: The cell plate was inoculated in a carbon dioxide incubator at 37° C. overnight; • 2) 2 μL of the compound was weighed and added to 78 μL of the cell medium. After the mixture was mixed thoroughly, 20 μL of the solution of compound was weighed and added to the corresponding well of the cell plate. The cell plate was placed back to the carbon dioxide incubator and incubated for another 1 hour; • 3) After completion of the incubation, the cell supernatant was discarded. 50 μL of 1× cell lysate was added to each well. The mixture was incubated with shaking at room temperature for 30 minutes; • 4) Phospho-ERK1/2 Eu Cryptate antibody and Phospho-ERK1/2 d2 antibody were diluted 20-fold with detection buffer; • 5) 16 μL of cell lysate supernatant was weighed and added into each well of a new 384 white microwell plate, and then 2 μL of the diluted solution of Phospho-ERK1/2 Eu Cryptate antibody and 2 μL of the diluted solution of Phospho-ERK1/2 d2 antibody dilution were added. The mixture was incubated at room temperature for at least 4 hours; • 6) After completion of the incubation, HTRF was read with multi-label analyzer: excitation: 320 nm, emission: 615 nm, 665 nm; • 7). IC50 of the compounds to be assayed was calculated.

[2] = Pharmacokinetic study of oral and intravenously injected compounds in CD-1 mouse; assay type: in vivo
Method: To assay the pharmacokinetics of oral and intravenously injected compounds in CD-1 mouse. The assay compound was mixed with 5% DMSO+95% (10% HP-β-CD) aqueous solution. The mixture was vortexed and sonicated to prepare a clear solution of 0.5 mg/mL (intravenous) or a clear solution of 3 mg/mL (oral). The clear solution was filtered by a microporous membrane for use. […] Whole blood was collected for a certain period of time, and prepared to obtain plasma. Drug concentration was analyzed by LC-MS/MS method, and pharmacokinetic parameters were calculated by Phoenix WinNonlin software (Pharsight, USA).

[3] = tested on: KRAS^G12D AsPC-1; experiment: Anti-cell proliferation effect in tumor cell line AsPC-1 (CellTiter-Glo 3D); assay type: cell-based; conditions: Homo sapiens, ASPC1, AsPC-1, 120 hours
Method: (§1) In this assay, the effect of the compounds on inhibiting cell proliferation was studied by detecting the effect of the compounds on the cell activity in vitro in the tumor cell lines AsPC-1 and GP2D.
(§2) The tumor cell lines were cultured in a 37° C., 5% CO2 incubator according to the culture conditions indicated in the culture method. Cells were passaged regularly, and cells in logarithmic growth phase were used for plating.
(§3) Cells were stained with trypan blue and viable cells were counted.
(§4) The cell concentration was adjusted to an appropriate concentration.
(§5) To each well of a ULA culture plate was added 135 μL of cell suspension. To the blank control well was added the same volume of culture medium without cells.
(§6) After plating, the ULA culture plate was immediately centrifuged at room temperature at 1000 rpm for 10 minutes. Note: After completion of the centrifugation, subsequent operations must be processed carefully to avoid unnecessary shocks.
(§7) The culture plate was incubated in a 37° C., 5% CO2, 100% relative humidity incubator overnight.
(§8) 10× compound working solution (10× working solution in DMSO) was formulated, and then to the ULA culture plate was add 15 μL of 10× compound working solution, and to the vehicle control and blank control was added 15 μL of DMSO-cell culture medium mixture, respectively. […]
(§9) The luminescent signal was detected on a 2104 EnVision plate reader. […]

[4] = tested on: KRAS^G12D GP2D; experiment: Anti-cell proliferation effect in tumor cell line GP2D (CellTiter-Glo 3D); assay type: cell-based; conditions: 120 hours
Method: as §1, §2, §3, §4, §5, §6, §7, §8, §9

[5] = target: KRAS^G12D (Homo sapiens (Human), UniProt P01116, G12D); experiment: Assay of activity of inhibiting KRAS^G12D (TR-FRET, SOS/GTP nucleotide exchange); assay type: biochemical
Method: 20 mL of 1000 mM HEPES, 20 mL of 500 mM EDTA, 10 mL of 5 M sodium chloride, 0.1 mL of 100% Tween 20, and 949.9 mL of water were weighed and formulated to 1 L of solution. The solution was sterilized by filtration and stored at 4° C.
20 mL of 1000 mM HEPES, 10 mL of 1000 mM magnesium chloride, 30 mL of 5 M sodium chloride, 0.05 mL of 100% Tween 20, and 939.95 mL of water were weighed and formulated to 1 L of solution. The solution was sterilized by filtration and stored at 4° C.
9.5 μL of 95 μM KRAS^G12D protein and 440.5 μL of KRAS nucleotide exchange buffer were weighed and mixed. The mixture was incubated at room temperature for 1 hour, and then formulated to […] of solution together with 8.4 μL of 17.9 μM Tb-SA, 1.8 μL of 5 mM Bodipy GDP and 9539.8 μL of KRAS assay buffer. After mixing, the solution was left to stand at room temperature for 6 hours, and stored at −80° C. • b. Assay reagents:
73.3 μL of KRAS/Bodipy GDP/Tb-SA mixture and 2126.7 μL of KRAS assay buffer were weighed and formulated to 2200 μL of solution.
1.59 μL of 166 μM SOS protein, 198 μL of 100 mM GTP and 2000.41 μL of KRAS assay buffer were weighed and formulated to 2200 μL of solution.
• 1) The concentration of a stock solution of the control compound was 1 mM, and the concentration of a stock solution of compounds to be assayed was 10 mM. […]

[6] = male, CD-1, plasma, intravenous (IV), about 2 mg/kg
[7] = male, CD-1, plasma, oral (PO), about 30 mg/kg

Sequence of KRAS^G12D (P01116-2 other isoform, or with tags, fused parts or gaps G12D): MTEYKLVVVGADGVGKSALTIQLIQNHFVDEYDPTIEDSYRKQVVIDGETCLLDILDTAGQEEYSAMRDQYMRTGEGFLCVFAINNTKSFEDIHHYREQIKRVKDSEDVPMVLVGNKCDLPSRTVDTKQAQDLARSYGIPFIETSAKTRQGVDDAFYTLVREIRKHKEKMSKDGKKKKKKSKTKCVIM

Structure (SMILES)	IC50 [1] [nM]	also measured
Nc1ccc(C(F)(F)F)c([C@H]2Cc3nc(OC[C@@]45CCCN4C[C@H](F)C5)nc(N4CC5CCC(C4)N5)c3CO2)c1F (single isomer, unassigned) [Compound 20B]	1.3	AUC(0-t) [2, 6]: 0.371 µM·h; C0 [2, 6]: 449 nM; Vd [2, 6]: 97.2 L/kg; clearance [2, 6]: 138 mL/min/kg; half-life [2, 6]: 672 min; AUC(0-inf) [2, 7]: 4.71 µM·h; Cmax [2, 7]: 2100 nM; half-life [2, 7]: 864 min; F ([2]; oral (PO), about 30 mg/kg, oral bioavailability): 85%
Cc1cc(N)c(F)c(C2Cc3nc(OC[C@@]45CCCN4C[C@H](F)C5)nc(N4CC5CC(C4)N5)c3CO2)c1C(F)(F)F (stereo partly shown) [Compound 2 hydrochloride]	–	IC50 [3]: 1860 nM; IC50 [4]: 332 nM
Cc1cc(N)c(F)c(C2Cc3nc(OC[C@@]45CCCN4C[C@H](F)C5)nc(N4CC5C=CC(C4)N5)c3CO2)c1C(F)(F)F (stereo partly shown) [Compound 7 hydrochloride]	1.1	IC50 [5]: 0.1 nM
Oc1cc(C2Cc3nc(OC[C@@]45CCCN4C[C@H](F)C5)nc(N4CC5CCC(C4)N5)c3CO2)c2ccccc2c1 (stereo partly shown) [Compound 8 hydrochloride]	78	IC50 [5]: 78.3 nM
Cc1cc(N)c(F)c(C2Cc3nc(OC[C@@]45CCCN4C[C@H](F)C5)nc(N4CC5CCC(C4)N5)c3CO2)c1C(F)(F)C(F)(F)F (stereo partly shown) [Compound 12 formate]	20.9	–
Cc1cc(N)c(F)c(C2Cc3nc(OC[C@@]45CCCN4C[C@H](F)C5)nc(N4CC5CCC(C4)N5)c3CO2)c1Cl (stereo partly shown) [Compound 14 hydrochloride]	5.2	–
Cc1cc(N)c(F)c(C2Cc3nc(OC[C@@]45CCCN4C[C@H](F)C5)nc(N4CC5CCC(C4)N5)c3CO2)c1Br (stereo partly shown) [Compound 15 hydrochloride]	8.4	–
Cc1cc(N)c(F)c(C2Cc3nc(OC[C@@]45CCCN4C[C@H](F)C5)nc(N4CC5CCC(C4)N5)c3CO2)c1I (stereo partly shown) [Compound 16 hydrochloride]	2.9	–
C#Cc1c(C)cc(N)c(F)c1C1Cc2nc(OC[C@@]34CCCN3C[C@H](F)C4)nc(N3CC4CCC(C3)N4)c2CO1 (stereo partly shown) [Compound 17]	27.1	–
Cc1cc(N)c(F)c(C2Cc3nc(OC[C@@]45CCCN4C[C@H](F)C5)nc(N4CC5CCC(C4)N5)c3CO2)c1C#N (stereo partly shown) [Compound 18]	66.4	–
C=Cc1c(C)cc(N)c(F)c1C1Cc2nc(OC[C@@]34CCCN3C[C@H](F)C4)nc(N3CC4CCC(C3)N4)c2CO1 (stereo partly shown) [Compound 19 hydrochloride]	17.5	–
Nc1cc(Cl)c(Br)c(C2Cc3nc(OC[C@@]45CCCN4C[C@H](F)C5)nc(N4CC5CCC(C4)N5)c3CO2)c1F (stereo partly shown) [Compound 21 hydrochloride]	2.6	–
Nc1cc(F)c(C(F)(F)F)c(C2Cc3nc(OC[C@@]45CCCN4C[C@H](F)C5)nc(N4CC5CCC(C4)N5)c3CO2)c1F (stereo partly shown) [Compound 22 hydrochloride]	2.7	–
Cc1cc(N)nc(C2Cc3nc(OC[C@@]45CCCN4C[C@H](F)C5)nc(N4CC5CCC(C4)N5)c3CO2)c1C(F)(F)F (stereo partly shown) [Compound 23 formate]	23.4	–
Cc1cc(N)c(F)c(C2Cc3nc(OC[C@@]45CCCN4C[C@H](F)C5)nc(N4CC5CCC(C4)N5)c3CO2)c1C (stereo partly shown) [Compound 25 hydrochloride]	96.4	–
Cc1cc(N)c(F)c(C2Cc3nc(OC[C@@]45CCCN4C[C@H](F)C5)nc(N4CC5CCC(C4)N5)c3CO2)c1C1CC1 (stereo partly shown) [Compound 27 hydrochloride]	118	–
